Data set [1] deals with navicular disease. To be noted: cited from earlier work.
In data set [2] the test system is navicular disease. The data set is described as follows: Conventional navicular disease treatments (background discussion). It is filed as in vivo. To be noted: horse #18 (Molson), intermittent lameness over previous 5 months. An excerpt:
To illustrate the advantages of pentoxifylline over existing navicular disease treatments, the following conventional treatments will be discussed herein.

As for `CC(=O)CC(c1ccccc1)c1c(O)c2ccccc2oc1=O` (racemic) [Warfarin], the safety disadvantage entry in data set [1] (accidental lacerations or injuries) is listed as “can be fatal due to hemmorrhage”. As to `CC(COc1ccccc1)NC(C)C(O)c1ccc(O)cc1` (stereo not shown) [Isoxsuorine], the efficacy result in data set [1] (generic, unpredictable results) is “Approximately 50%”.

On to `CCCCC1C(=O)N(c2ccccc2)N(c2ccccc2)C1=O` [phenylbutazone], for which, in data set [1] (in vivo), the side effects result was “risk of gastric and cecal ulcers and kidney damage”. In data set [2], the “response to previous treatment” value is “responded”.

Source of the values: US5077296A, “Method for treating equine navicular disease with pentoxifylline, and composition containing pentoxifylline for administrating to horses” (priority 1987, dated 1991).
